Assay results from ChEMBL document CHEMBL5441445, “ASAP - In vitro CYP inhibition pooled” (2024).

Legend:
Type in all cases: ADME
[1] = target: T1, Cytochrome P450 1A2 (Homo sapiens, UniProt P05177); assay: (§1) The compounds are incubated at 0, 0.15, 0.5, 1.5, 5, 15 and 50 uM concentration at 37 C, CYP1A2 is pooled in a ratio such that biotransformation of each probe substrate is specific for the CYP450. Substrates (at their Km) are also pooled within the same solution to create an enzyme-substrate stock and test compound is added. The final solvent concentration is 1% DMSO. After equilibration to 37 C, addition of NADPH initiates substrate biotransformation. The incubation is stopped at 10 min by methanol containing internal standard. The quenched samples are centrifuged to precipitate the protein and the supernatants are analyzed by LC-MS/MS to measure metabolite formation. IC50 of test compounds against CYP1A2 is calculated. The assay has been performed by Concept Life Sciences Ltd.
T1 sequence (P05177 whole entry): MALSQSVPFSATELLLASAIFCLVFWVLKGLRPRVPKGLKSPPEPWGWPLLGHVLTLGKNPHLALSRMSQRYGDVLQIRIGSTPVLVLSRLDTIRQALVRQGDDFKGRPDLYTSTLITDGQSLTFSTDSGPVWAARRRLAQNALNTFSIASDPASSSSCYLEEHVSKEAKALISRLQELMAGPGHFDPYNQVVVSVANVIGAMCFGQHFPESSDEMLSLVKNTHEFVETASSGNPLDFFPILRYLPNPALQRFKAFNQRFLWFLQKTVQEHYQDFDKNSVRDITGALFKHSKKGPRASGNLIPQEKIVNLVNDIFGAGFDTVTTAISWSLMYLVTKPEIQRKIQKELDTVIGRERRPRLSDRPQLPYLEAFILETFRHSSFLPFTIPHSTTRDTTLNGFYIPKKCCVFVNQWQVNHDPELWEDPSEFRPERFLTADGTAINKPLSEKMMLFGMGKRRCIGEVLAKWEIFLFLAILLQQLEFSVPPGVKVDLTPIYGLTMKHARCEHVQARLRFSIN

[2] = target: Cytochrome P450 2C19 (Homo sapiens, UniProt P33261); assay: as §1, with “CYP2C19” for “CYP1A2”
Sequence of Cytochrome P450 2C19 (P33261 whole entry): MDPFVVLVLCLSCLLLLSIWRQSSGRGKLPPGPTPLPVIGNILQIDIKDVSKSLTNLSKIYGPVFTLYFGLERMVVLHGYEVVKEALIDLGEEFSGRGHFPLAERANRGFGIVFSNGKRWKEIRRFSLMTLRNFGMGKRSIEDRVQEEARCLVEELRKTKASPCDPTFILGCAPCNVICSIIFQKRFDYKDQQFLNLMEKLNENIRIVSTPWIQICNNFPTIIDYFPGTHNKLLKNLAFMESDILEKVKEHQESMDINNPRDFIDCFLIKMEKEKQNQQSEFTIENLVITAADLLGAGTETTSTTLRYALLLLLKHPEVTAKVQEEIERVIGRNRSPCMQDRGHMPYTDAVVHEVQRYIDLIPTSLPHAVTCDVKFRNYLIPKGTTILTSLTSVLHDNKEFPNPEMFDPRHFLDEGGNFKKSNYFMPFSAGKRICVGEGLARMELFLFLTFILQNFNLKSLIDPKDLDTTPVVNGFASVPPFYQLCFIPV

[3] = target: Cytochrome P450 2C9 (Homo sapiens, UniProt P11712); assay: as §1, with “CYP2C9” for “CYP1A2”
Sequence of Cytochrome P450 2C9 (P11712 whole entry): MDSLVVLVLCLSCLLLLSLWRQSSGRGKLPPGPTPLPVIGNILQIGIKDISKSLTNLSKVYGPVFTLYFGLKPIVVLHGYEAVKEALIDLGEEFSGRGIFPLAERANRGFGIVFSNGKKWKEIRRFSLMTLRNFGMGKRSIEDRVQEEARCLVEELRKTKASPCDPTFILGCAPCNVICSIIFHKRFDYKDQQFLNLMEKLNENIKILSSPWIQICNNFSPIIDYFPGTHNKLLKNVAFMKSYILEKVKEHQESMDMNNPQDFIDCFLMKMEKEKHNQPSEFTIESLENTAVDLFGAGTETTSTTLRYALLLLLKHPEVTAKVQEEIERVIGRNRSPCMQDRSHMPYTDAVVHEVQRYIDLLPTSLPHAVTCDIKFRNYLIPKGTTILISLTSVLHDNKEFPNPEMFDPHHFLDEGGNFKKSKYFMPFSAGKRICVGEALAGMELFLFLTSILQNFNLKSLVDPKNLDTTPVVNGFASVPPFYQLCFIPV

[4] = target: Cytochrome P450 2D6 (Homo sapiens, UniProt P10635); assay: as §1, with “CYP2D6” for “CYP1A2”
Sequence of Cytochrome P450 2D6 (P10635 whole entry): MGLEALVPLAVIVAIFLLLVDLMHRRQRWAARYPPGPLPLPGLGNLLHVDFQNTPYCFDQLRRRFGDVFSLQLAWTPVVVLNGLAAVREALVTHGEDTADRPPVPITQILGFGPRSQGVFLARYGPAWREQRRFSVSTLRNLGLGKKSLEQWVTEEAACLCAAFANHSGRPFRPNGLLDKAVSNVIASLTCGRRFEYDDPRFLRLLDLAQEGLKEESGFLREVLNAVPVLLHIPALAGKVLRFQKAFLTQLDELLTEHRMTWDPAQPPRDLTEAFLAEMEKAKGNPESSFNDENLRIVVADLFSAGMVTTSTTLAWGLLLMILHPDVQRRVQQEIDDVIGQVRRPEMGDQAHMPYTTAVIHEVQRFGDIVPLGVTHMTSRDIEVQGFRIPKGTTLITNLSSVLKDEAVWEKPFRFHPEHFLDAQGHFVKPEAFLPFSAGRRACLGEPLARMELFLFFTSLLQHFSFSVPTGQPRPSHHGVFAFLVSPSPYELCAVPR

[5] = target: Cytochrome P450 3A4 (Homo sapiens, UniProt P08684); assay: as §1, with “CYP3A4” for “CYP1A2”
Sequence of Cytochrome P450 3A4 (P08684 whole entry): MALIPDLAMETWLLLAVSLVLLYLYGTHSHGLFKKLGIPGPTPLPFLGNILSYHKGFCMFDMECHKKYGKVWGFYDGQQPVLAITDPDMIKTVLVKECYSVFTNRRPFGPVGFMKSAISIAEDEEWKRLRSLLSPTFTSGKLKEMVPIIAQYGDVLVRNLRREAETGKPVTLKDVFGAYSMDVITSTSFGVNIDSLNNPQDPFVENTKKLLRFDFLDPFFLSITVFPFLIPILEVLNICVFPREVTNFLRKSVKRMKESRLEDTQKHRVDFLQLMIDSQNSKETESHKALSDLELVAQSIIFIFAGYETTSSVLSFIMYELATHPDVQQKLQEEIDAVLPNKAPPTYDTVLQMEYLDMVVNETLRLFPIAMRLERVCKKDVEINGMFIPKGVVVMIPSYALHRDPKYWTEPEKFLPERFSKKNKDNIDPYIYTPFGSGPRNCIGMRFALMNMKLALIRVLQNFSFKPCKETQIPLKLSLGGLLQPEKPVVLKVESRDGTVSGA

IC50 [1] [µM] | IC50 [2] [µM] | IC50 [3] [µM] | IC50 [4] [µM] | IC50 [5] [µM] | Structure (SMILES)
> 50 | > 50 | 5.14 | > 50 | > 50 | C[C@H](C(=O)O)[C@@H](NC(=O)c1ncnc2[nH]ccc12)c1ccc(Br)cc1
8.86 | 9.51 | 4.34 | 22.7 | 2.07 | CC(C)[C@@H](Nc1ncnc2[nH]c(-c3cnn(C)c3C#N)cc12)c1ccc2c(n1)OCCO2
49.3 | 22.6 | 5.25 | 9.03 | 1.81 | CNCc1cc(-c2cc3c(N[C@@H](c4ccc5c(c4)S(=O)(=O)CCC5)C(C)C)ncnc3[nH]2)co1
> 50 | > 50 | 42.6 | 20.5 | 8.79 | Cn1ncc(-c2cc3c(N[C@@H](c4ccc5c(n4)OCCO5)C(C)(C)C)ncnc3[nH]2)c1C#N
> 50 | 15 | 18.2 | > 50 | 3.2 | CC(C)[C@H](Nc1ncnc2[nH]ccc12)c1ccc2c(c1)S(=O)(=O)CCC2
35.2 | 16.9 | 5.93 | 27.7 | 3.69 | CC(C)[C@H](Nc1ncnc2[nH]c(-c3cnn(C)c3C#N)cc12)c1ccc2c(n1)OCCO2
> 50 | > 50 | 31.2 | > 50 | 25.4 | COc1ccc([C@H](Cc2nnn[nH]2)NC(=O)c2ncnc3[nH]ccc23)cc1
> 50 | > 50 | > 50 | > 50 | > 50 | CC(C)[C@@H](Nc1ncnc2[nH]c(C(=O)N[C@@H]3CCN(C)C3)cc12)c1ccc2c(c1)S(=O)(=O)CCC2
44.1 | 34.7 | 29 | 48.2 | 3.1 | CNC(=O)Cn1cc(-c2cc3c(N[C@@H](c4ccc5c(c4)S(=O)(=O)CCC5)C(C)C)ncnc3[nH]2)cn1
